PMC4552634, “A New Set of Chemical Starting Points with Plasmodium falciparum Transmission-Blocking Potential for Antimalarial Drug Discovery” (PLoS ONE, 2015)
Like-named read-outs stand apart in the source and are kept apart here.

Assays:
[1] = tested on: P. falciparum asexual stages; conditions: asexual stages; TCAMS data; read-out: IC50 asexual; cited from earlier work
HepG2 cells = assay: Cytotoxicity in HepG2 cells (intracellular ATP, ATPlite, 48 h); type: cell-based, human; conditions: HepG2 cells; IC50 per ratio column head; unit inferred
Description: Cells were grown and maintained in EMEM (Sigma-Aldrich) supplemented with 2mM L-glutamine (Sigma-Aldrich) and 10% fetal calf serum (Perbio). […] Passages were routinely made upon reaching 80–90% confluence. For cytotoxicity experiments, cells were seeded onto 96-well clear bottom black plates coated with type I collagen (Biocoat, Becton Dickinson) at a cell density of 20,000 cells/well.
To determine cytotoxic effects, represented by the Tox50 value (the concentration of drug that reduces cell viability by 50%), cells were exposed to serial dilutions of compounds for 48 h at 37°C. The assay medium was as previously described, but supplemented with 5% fetal calf serum instead of 10%. […] In the presence of ATP, luminescence is emitted as the reaction described earlier for the BacTiter-Glo kit. Percentages of inhibition were calculated relative to vehicle control wells.

[2] = tested on: P. falciparum stage V gametocytes; assay: Gametocytocidal ATP bioluminescence assay (single point 5 μM and 1 μM, dose-response); type: cell-based, Plasmodium falciparum; conditions: for Ratio IC50 HepG2/IC50 P. falciparum: IC50 HepG2 divided by IC50 P. falciparum gametocytes
Description: Purified stage IV-V gametocytes were obtained as previously described [10]. Single point ATP bioluminescence assay and dose–response of positive hits was determined in accordance with the previously published protocol [10].

[3] = P. falciparum gametocytes, average, read-out: IC50 Pf Gametocytes average, IC50 (µM) average
[4] = sexual stages (gametocytes), dose-response, read-out: IC50 sexual

Row | Structure (SMILES) | IC50 [1] [nM] | IC50 (HepG2 cells) [nM] | Ratio IC50 HepG2/IC50 P. falciparum [2] | IC50 [2, 3] [µM] | IC50 [2, 4] [µM]
1 | COc1c(OC)c(OC)c2ccccc2c1CNCCCCCCNCc1c(OC)c(OC)c(OC)c2ccccc12 [TCMDC-137827] | 759 | 3200 | 2.79 | 1.15 | 1.15
2 | COc1cccc(CCNCCCCCCNCCc2ccc(Cl)cc2)c1 [TCMDC-131284] | 1010 | 6100 | 12 | 0.53 | –
3 | CC(C)CCNCc1ccc(OCc2cccc(COc3ccc(CNCCC(C)C)cc3I)c2)c(I)c1 [TCMDC-137274] | 453 | 5300 | 14 | 0.37 | –
4 | CCN(CC)CCOc1ccc(C(O)(C#CC(O)(c2ccc(OCCN(CC)CC)cc2)c2ccc([N+](=O)[O-])cc2)c2ccc([N+](=O)[O-])cc2)cc1 (stereo not drawn) [TCMDC-137201] | 1730 | 6200 | 28 | 0.22 | 0.224
5 | ON=C1CCc2cc(-c3cc(-c4ccc(OC5CCNCC5)cc4)oc3-c3ccncc3)ccc21 [TCMDC-141381] | 157 | 7500 | 28 | 0.27 | –
6 | O=C(Nc1ccc(Cl)c(Cl)c1)Nc1ccccc1N1CCNCC1 [TCMDC-133727] | 709 | 11200 | 1.51 | 7.42 | –
7 | O=C(NCCCCN1CCC(c2c[nH]c3ccc(-c4ccccc4)cc23)CC1)c1ccc(-c2ccccc2)cc1 [TCMDC-139064] | 985 | 9400 | 5 | 1.83 | –
8 | CCN(CC)CCOc1ccc(C(O)(C#CC(O)(c2ccc(C)cc2)c2ccc(OCCN(CC)CC)cc2)c2ccc(C)cc2)cc1 (stereo not drawn) [TCMDC-137198] | 903 | 1620 | 12 | 0.14 | –
9 | CCOc1ccc2ccccc2c1CNCCCCCCNCc1c(OCC)ccc2ccccc12 [TCMDC-137791] | 576 | 1750 | 2.5 | 0.7 | –
10 | CCCOc1ccc2ccccc2c1CNCCCCCCNCc1c(OCCC)ccc2ccccc12 [TCMDC-137966] | 791 | 3100 | 9 | 0.34 | –
11 | CC(Cc1ccc(OCCCCOc2ccccc2)cc1)NCCC1CCCN1C (stereo not drawn) [TCMDC-140017] | 40 | < 1560 | <16 | 0.095 | –
12 | CC(CCCCC(=O)Nc1ccc(CC(C)NCCc2cccc(Cl)c2)cc1)NCCc1cccc(Cl)c1 (stereo not drawn) [TCMDC-139799] | 1010 | 6590 | 4 | 1.66 | 1.66
13 | O=S(=O)(NCCN1CCCC1)c1cccc(-c2ccc(CNCc3ccc(F)cc3)cc2)c1 [TCMDC-132289] | 234 | 7400 | 2.75 | 2.69 | –
14 | COc1cc2ccccc2cc1CCNCCCCNCCc1cc2ccccc2cc1OC [TCMDC-137944] | 403 | 3390 | 32 | 0.11 | 0.105
15 | Fc1ccc(N(c2nc(-c3cc(F)cc(C(F)(F)F)c3)cs2)C2CCNCC2)cc1 [TCMDC-136656] | 956 | 6600 | 2 | 3.28 | 3.27
16 | CCOc1c(CCNCCCCNCCc2ccc3ccccc3c2OCC)ccc2ccccc12 [TCMDC-137759] | 596 | < 1560 | <9 | 0.17 | 0.173
17 | Cc1cc(NCCc2ccccc2)nc(/N=C(\N)Nc2ccccc2Cl)n1 [TCMDC-138370] | 789 | 13600 | 2.79 | 4.87 | –

Row | Structure (SMILES) | IC50 [1] [nM] | IC50 (HepG2 cells) [nM] | Ratio IC50 HepG2/IC50 P. falciparum [2] | IC50 [2, 3] [µM] | IC50 [2, 4] [µM]
18 | CCn1c(-c2nonc2N)nc2c(-c3cccc(NC(=O)Nc4ccccc4OC)c3)ncc(OCCCN)c21 [TCMDC-136190] | 1000 | 5900 | 14 | 0.44 | 0.435
19 | COc1ccc2cc(CNCCCCCCNCc3ccc4cc(OC)ccc4c3)ccc2c1 [TCMDC-137797] | 624 | 3000 | 4.48 | 0.67 | –
20 | CC(C)CNCc1cccc(-c2cccc(CN(CCCN3CCN(C)CC3)C(=O)/C=C/c3ccccc3)c2)c1 [TCMDC-140541] | 926 | 7470 | 13 | 0.56 | 0.557
21 | NCCCOc1cnc(-c2ccccc2)c2nc(-c3nonc3N)n(CCc3ccccc3)c12 [TCMDC-136216] | 1270 | 5610 | 4 | 1.4 | –
22 | CN1CCN(c2nsc3ccc(-c4ccc(NC(=O)Nc5cc(C(F)(F)F)ccc5F)cc4)cc23)CC1 [TCMDC-133435] | 245 | 6400 | 0.851 | 7.52 | –
23 | Cc1ccc2nc(C)cc(N/N=C/c3ccc([N+](=O)[O-])cc3)c2c1 [TCMDC-142070] | 793 | 190 | 0.0202 | 9.41 | –
24 | Nc1c2ccccc2nc2ccc(-c3ccccc3)cc12 [TCMDC-132030] | 140 | 3300 | 7 | 0.49 | 0.485
25 | COc1cc2ccccc2cc1OCCCN1CCN(CC(c2ccc(F)cc2)N2CCN(C(C)C)CC2)CC1 (stereo not drawn) [TCMDC-135496] | 749 | 3720 | 3 | 1.25 | 1.25
26 | COc1ccc2ccccc2c1CNCCCCCCNCc1c(OC)ccc2ccccc12 [TCMDC-137915] | 712 | 3590 | 14 | 0.25 | 0.253
27 | CCNCc1cccc(-c2ccc3ccnc(N)c3c2)c1 [TCMDC-136869] | 47 | 12500 | 7.56 | 1.66 | –
28 | CCN(CC)CCOc1ccc(C(O)(C#CC(O)(c2ccccc2)c2ccc(OCCN(CC)CC)cc2)c2ccccc2)cc1 (stereo not drawn) [TCMDC-137197] | 1310 | 3670 | 5.34 | 0.69 | 0.687
29 | CC1(C)CC(NCCCCCCCOc2ccc(OCc3ccccc3)cc2)CC(C)(C)N1 [TCMDC-138958] | 827 | 3000 | 4.41 | 0.68 | –
30 | COc1ccc2c(c1CNCCCCCCNCc1c(OC)ccc3c1CCCC3)CCCC2 [TCMDC-137817] | 907 | 3830 | 9 | 0.42 | –
31 | CC(C)(C)N1CCC(N(Cc2ccc(-c3ccc(C(F)(F)F)cc3)cc2)C(=O)Cn2c(CCc3cccc(F)c3F)cc(=O)c3cccnc32)CC1 [TCMDC-136011] | 705 | 3100 | 1.3 | 2.39 | –
32 | c1ccc2c(NCCCCCCCCNc3ccnc4ccccc34)ccnc2c1 [TCMDC-137751] | 155 | 3740 | 3.46 | 1.08 | –
33 | COc1ccc(CCNCCCCCCNCCc2ccc(-c3ccccc3)cc2)cc1OC [TCMDC-131267] | 958 | 3250 | 19 | 0.17 | 0.173
34 | CC(CCCC(=O)Nc1ccc(CC(C)NCCc2cccc(Cl)c2)cc1)NCCc1cccc(Cl)c1 (stereo not drawn) [TCMDC-139798] | 625 | 4500 | 5.52 | 0.82 | 0.815
